The data set can be described thus: Aerosol performances by Next Generation Impactor (NGI). It counts as physicochemical. As to the method: The evaluation of the aerosol performances was carried out using the Next Generation Impactor (NGI) according to the conditions reported in the European Pharmacopeia 8.5th Ed 2015, par 2.9.18, pages 309-320. After aerosolization of 3 doses from the inhaler device, the NGI apparatus was disassembled and the amounts of drug deposited in the stages were recovered by washing with a 50:50 v/v water:acetonitrile mixture and then quantified by High-Performance Liquid Chromatography (HPLC). The following parameters, were calculated: i) the delivered dose which is the amount of drug delivered from the device recovered in the all parts of impactor; ii) the fine particle mass (FPM) which is the amount of delivered dose having a particle size equal to or lower than 5.0 micron; iii) the fine particle fraction (FPF) which is the ratio between the fine particle mass and the delivered dose; iv) the MMAD. The evaluation of the aerosol performances was performed as reported in Example 1. […]

Where [1] appears, read: Example 4 formulation, Multidose DPI.
The mark [2] stands for this setting: Example 4 formulation, Single Dose DPI (RS01).
The mark [3] stands for this setting: Example 5 formulation, 1 mg single dose, single dose DPI RS01.
The mark [4] stands for this setting: Example 5 formulation, 4 mg single dose, single dose DPI RS01.

Under “Example 1 formulation (3000 μg BDP per 10 mg shot), multidose DPI of WO 2016/000983, NGI, 3 doses”, `CCC(=O)OCC(=O)[C@@]1(OC(=O)CC)[C@@H](C)C[C@H]2[C@@H]3CCC4=CC(=O)C=C[C@]4(C)[C@@]3(Cl)[C@@H](O)C[C@@]21C` [BDP, beclometasone dipropionate, reference compound] showed a Delivered Dose of 2.16 mg. The MMAD (Example 1 formulation, multidose DPI) is on record as 2.26 μm. Where the note is “Example 1 formulation, multidose DPI, particle size equal to or lower than 5.0 micron”, this compound yielded a Fine Particle Mass of 0.87 mg. The “Fine Particle Fraction” value (Example 1 formulation, multidose DPI, ratio fine particle mass/delivered dose) came to 38.5%.

Consider `COC(=O)C1=C(C)N(c2cccc(C(F)(F)F)c2)c2n[nH]c(=O)n2[C@@H]1c1ccc(C#N)cc1CC[N+](C)(C)C` [CHF 6333], for which the “Fine Particle Fraction” value runs as follows: under setting [1], 41.7%; under setting [2], 77.1%; under setting [3], 71.6%; under setting [4], 73.9%. The Fine Particle Mass under setting [1] is 0.8 mg, the Fine Particle Mass under setting [2] is 1.18 mg, the Fine Particle Mass under setting [3] worked out at 0.58 mg and the Fine Particle Mass under setting [4] is 2.13 mg. Further, the MMAD is listed as 2.09 μm under setting [1], 1.88 μm under setting [2], 2.15 μm under setting [3] and 1.85 μm under setting [4]. In addition, the Delivered Dose by setting is: (Example 4 formulation, Multidose DPI (WO 2016/000983)) 1.92 mg; (Example 4 formulation, Single Dose DPI (RS01 of Plastiape)) 1.53 mg; under setting [3], 0.81 mg; under setting [4], 2.88 mg.

(Values after patent US12491156B2, “Carrier particles for dry powder formulations for inhalation” (Chiesi Farmaceutici S.p.A., priority 2019, dated 2025).)
